These results are taken from patent US6525057B2, “Sustained release ranolazine formulations” (CV Therapeutics, Inc., priority 1998, dated 2003).

The data set deals with patients with chronic stable angina pectoris. Briefly: Example 4: safety, hemodynamics and tolerability. The class given is in vivo, human. The method, then:
After each 1 week period, patients returned to the exercise laboratory in the morning, at least 1 hour after a light breakfast, for an ETT. This was designated the trough ETT; the trough ETTs were performed at the same time of day for each patient. After completing the trough ETT, the patient received the next scheduled blinded medication dose from the blister pack used that week. Another ETT was performed 1 hour after the administered dose. This was designated the peak ETT. Blood samples were obtained at trough (approximately 8 hours after dosing) and at peak (1 hour after dosing). Other standard laboratory tests were monitored regularly throughout the study.
Blood pressure (by cuff) and heart rate were monitored before all ETTs, during the ETT, during the last minute of each stage of the test, at onset angina, at the point of maximum exercise, and during recovery (every minute for 4 minutes, then every 5 minutes until values returned to baseline). Heart rates also was monitored continuously and standard 12-lead ECG recordings were done immediately before exercise with the patient standing on the treadmill, at the end of each stage of exercise, at the maximally tolerated exercise load, and at the termination of exercise.

Take `COc1ccccc1OCC(O)CN1CCN(CC(=O)Nc2c(C)cccc2C)CC1` (racemic) [ranolazine, (±)-N-(2,6-dimethylphenyl)-4-[2-hydroxy-3-(2-methoxyphenoxy)-propyl]-1-piperazineacetamide]: for the setting “3 IR dosing regimens”, the “ECG intervals or complex morphology” value is given as “no drug-related changes” and the “blood glucose concentrations, lipid values or liver function tests” value is “no clinically significant changes”. For the same molecule, for the setting “over the plasma concentrations achieved in the study”, the tolerability result is “well tolerated”. For the same molecule, where the note is “peak ranolazine plasma concentrations”, the “blood pressure or heart rate” value is “not associated with changes in blood pressure or heart rate”. Also, the “double product versus placebo” value (peak ranolazine plasma concentrations, any dosing regimen) is on record as “no statistically significant differences”. Moreover, the “standing or maximum exercise double product versus placebo” value (trough ranolazine plasma concentrations, per-protocol analysis, 3 dosing regimens) is recorded as “no statistically significant differences”.
